Experimental data published in the METLIN SMRT retention time set (Domingo-Almenara et al. 2019).

Experiment: gradient 5% acetonitrile 3 min, to 50% in 2 min, to 85% in 15 min, held 3 min, 100 µL/min
Details: column: Zorbax Extend-C18 2.1 x 50 mm; eluents: water / acetonitrile, 0.1% formic acid
Procedure, shortened: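 Values are retention times taken from adduct peaks that software picked and an analyst inspected. The pure standards were run as mixtures of ~100 molecules on HPLC linked to a quadrupole time-of-flight mass spectrometer, in positive and negative ionization mode. A Zorbax Extend-C18 column (2.1 × 50 mm, 1.8 μm) was used at 100 μL/min with water and acetonitrile, each including 0.1% formic acid.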

RP-LC retention time [s]	SMILES
839	COc1cccc(CNC(=O)C2(C)CCCN(C(=O)Nc3ccccc3)C2)c1 (configuration not stated)
1050	CC(C)Cc1ccc(S(=O)(=O)NC2CCCN(c3ccc(=O)n(CC4CC4)n3)C2)cc1 (configuration not stated)
874	COc1cccc(CNC(=O)c2nnc(-c3ccc(S(=O)(=O)N4CCCC4)cc3)o2)c1
725	Cc1ccccc1NS(=O)(=O)c1ccc2c(c1)CCCC(=O)N2
854	CC(=O)Nc1nc(-c2ccc(S(=O)(=O)Nc3ccc(C)cc3)cc2)cs1
626	CC1CCCN(CCCNC(=O)CCCn2c3ccccc3c3cnn(C)c(=O)c32)C1 (configuration not stated)
987	CCc1ccccc1NC(=O)N1CCCC1c1nc(-c2ccc(F)cc2F)no1 (configuration not stated)
983	CCn1cc(-c2nc(C(=O)Nc3ccc(C)cc3F)cs2)c2cccnc21
830	O=C(c1ccoc1)N1CCC(N2CCc3ccccc32)CC1
661	O=C(CN1Cc2ccccc2C1=O)N[C@@H](Cc1c[nH]c2ccccc12)C(=O)O
1050	CCN(CC)S(=O)(=O)c1ccc2c(c1)N(CC(=O)NC1CCCCCC1)C(=O)C1CCCCN21 (configuration not stated)
1060	Cc1oc2ccn(Cc3cccc(F)c3)c(=O)c2c1C(=O)NC1CCCC1
948	O=C(COc1ccc(Cl)cc1)Nc1ccc2c(c1)N(C(=O)c1ccco1)CCC2
716	CCc1ccc(CNC(=O)Cn2ccc3c(=O)n(C)c(=O)n(C)c32)cc1
605	COc1nn(C)cc1C(=O)NCCn1nc(-c2cccs2)ccc1=O
1060	CCn1cc(-c2ccc(F)cc2)cc1C(=O)N1CCCCC1
850	COCc1noc([C@@H]2CC(F)(F)CN2S(=O)(=O)c2ccccc2)n1
775	CCOc1ccc(NC(=O)C2CCN(S(=O)(=O)c3cn(C(C)C)cn3)CC2)cc1
1040	CCOc1ccc(Cc2nc(-c3ccc4oc(C)nc4c3)no2)cc1OCC

RP-LC retention time [s]	SMILES
727	CC(CCc1ccccc1)NC(=O)CCc1c(-c2ccc(F)cc2)nc2ccccn12 (configuration not stated)
821	COc1ccc(C2Cn3cnc(C(=O)N4CCC(C(=O)NCC5CCCCC5)CC4)c3CO2)cc1 (configuration not stated)
802	CCN1CCCC(OC(=O)C(c2ccccc2)c2ccccc2)C1 (configuration not stated)
687	COCCNC(=O)c1nnc(-c2ccc(S(=O)(=O)N(C)C)cc2)o1
620	CC(Oc1ccc(-c2cnc3ccccc3n2)cc1)C(=O)N(C)Cc1ccco1 (configuration not stated)
563	CCNC(=O)c1cc(N2CCOCC2)nc2ccccc12
622	Cc1nc(C2CCOCC2)n(C2CCN(S(=O)(=O)c3cccnc3)C2)n1 (configuration not stated)
580	CCOc1cc(CN2CCCC2c2cc(C)no2)ccc1OCC(N)=O (configuration not stated)
691	Cc1nnc(C2CCCCCN2S(=O)(=O)c2cccnc2)o1 (configuration not stated)
1080	Cc1nn(C)c2nc(OCC(=O)Nc3ccc(Br)cc3F)cc(C(F)(F)F)c12
659	O=C(c1ccc2ncnc(N3CCCC3)c2c1)N1CCN(c2ccccc2F)CC1
679	CCS(=O)(=O)N1CCCc2cc(C(=O)N3CCOCC3)ccc21
634	CN(C)c1nccnc1OC1CCN(C(=O)c2ccnn2C)C1 (configuration not stated)
795	COc1ccc(C)cc1NC(=O)[C@@H]1[C@H](c2cc(OC)c(OC)c(OC)c2)c2cc3c(cc2[C@H](O)[C@H]1CO)OCO3
992	COc1ccc(-c2nnc(SCc3cccc(C(F)(F)F)c3)o2)cc1OC
615	Cc1nn(C(C)C(=O)NCCN2CCOCC2)c(=O)c2nn(-c3ccccc3)c(C)c12 (configuration not stated)
843	CCc1ccc(NC(=O)Cn2cnc3onc(C)c3c2=O)cc1
736	Cc1ccc(-n2nc3c(N4CCCC(C(=O)N5CCOCC5)C4)nnc(C)c3c2C)cc1 (configuration not stated)
